The subject of one series is fresh human hepatocytes. The series is described as follows: Release of active metabolite in fresh human hepatocytes. It counts as in vitro ADME. The following applies: 10 μM, 6 hr. Here is the method: Plates of fresh human and mouse hepatocytes were obtained on ice. The medium was removed and replaced with hepatocyte culture medium (William's E supplemented with penicillin-streptomycin, 1% L-glutamine, 1% insulin-transferrin-selenium and 0.1 μM Dexamethasone (Invitrogen) or with Invitro GRO HI medium complemented with Torpedo antibiotics (Celsis)). Cells were left overnight in an incubator at 37° C. to acclimatize to culture and the medium.
Hepatocyte incubations were conducted at a final volume of 0.5 mL hepatocyte culture medium/well (0.8 million cells/well for human and 0.5 million cells/well for mouse; 12 well plate no overlay, collagen coat). Culture medium from overnight incubation of cells was removed and replaced with fresh medium, pre-warmed to 37° C., containing 10 μM of test compound from a stock solution in DMSO (final DMSO concentration was 0.1%). At each specific time point, incubation medium was removed and cell monolayers were carefully washed two times with ice-cold PBS. Following the last wash, all PBS was carefully removed and 1.0 mL of extraction solution (ice-cold 70% methanol/30% water) added. Cells were scraped off and suspended in the extraction solution, transferred to 2 mL polypropylene microfuge tubes and intracellular contents extracted overnight at −20° C.
After the overnight treatment the cellular extracts were prepared by centrifugation at 16,000×g for 10 min to remove cellular debris. The remaining sample was then dried using a refrigerated centrivap concentrator. Dry extracts were reconstituted in 1000 μL of HPLC-grade water and centrifuged at 16,000×g for 10 min. Aliquots (100 μL each) of the supernatant were transferred into a 96 well plate and internal standard (4 ng/mL final concentration) was added as the internal standard (IS) for LC-MS/MS analysis.
The incubation time points were 6, 24 and 48 hours for human hepatocytes and 1, 4, 8, 12 and 24 hours for mouse hepatocytes.

The test system of a further series is HCV genotype 1b replicon. The series is described as follows: HCV Replicon Assay (Zluc luciferase reporter). The format is cell-based. Here is the method: Huh-7-derived cell line (Zluc) that harbors an HCV genotype 1b replicon and a luciferase reporter gene was grown in Dulbecco's Modified Eagle Medium (DMEM) supplemented with 10% fetal bovine serum, 2 mM GlutaMAX, 1% MEM nonessential amino acids, 100 IU/mL penicillin, 100 μg/mL streptomycin, and 0.5 mg/mL Geneticin® (G418). For dose response testing the cells were seeded in 96-well plates at 7.5×10^3 cells per well in a volume of […], and incubated at 37° C./5% CO2. Drug solutions were made up freshly in Huh-7 media as 2× stocks. […] 5-fold dilutions were prepared from these stocks in DMEM without G418. At least three hours after Zluc cells were seeded, drug treatment was initiated by adding 50 μL of drug dilutions to the plates in duplicate. Final concentrations of drug ranged from 100 μM to 0.0000512 μM. Cells were then incubated at 37° C./5% CO2. Alternatively, compounds were tested at two concentrations (1 μM and 10 μM). […] After 72 hours of incubation, the inhibition of HCV replication was measured by quantification of photons emitted after mono-oxygenation of 5′-fluoroluciferin to oxyfluoroluciferin by firefly luciferase. For this, media was removed from the plates via gentle tapping. Fifty microliters of ONE-glo luciferase assay reagent was added to each well. The plates were shaken gently for 3 min at room temperature and luminescence was measured on a Victor^3 V 1420 multilabel counter (Perkin Elmer) with a 1 second read time using a 700 nm cut-off filter. The EC50 values were calculated from dose response curves from the resulting best-fit equations determined by Microsoft Excel and XLfit 4.1 software. When screening at two fixed concentrations, the results were expressed as % inhibition at 1 μM and 10 μM.
For orientation: In antiviral work, replicon cells carry a viral genome segment that copies itself.

The nature of series [1]: Plasma and liver pharmacokinetics following a single oral dose in mice (Example 6). The format is in vivo. The following applies: mouse, plasma, CD-1 mice, oral 25 mg/kg, 1a average of N = 2. Here is the method:
For each compound, a single oral dose at 25 mg/kg in PEG 200 (dose volume 5 mL/kg) was administered to [CD-1] mice. Untreated animals were used for the collection of control liver. Terminal liver and plasma samples were collected from three animals per time point at 4, 12 and 24 hours post dose and additionally at 1 hour post dose in one occasion of Compound 1 (see Example 5). Liver specimens were collected from all animals immediately after the incision. Freezing forceps stored in liquid nitrogen were used to freeze the liver before excision.
Plasma samples were analyzed for the prodrug and 2′-methylguanosine (2′-MeG) or relevant nucleoside by LC-MS/MS. For protein precipitation and extraction, each plasma sample (50 μL) was treated with 500 μL of 0.2% formic acid in acetonitrile and 20 μL of an appropriate internal standard working solution. After vortexing and centrifugation, 500 μL of the sample extracts were transferred to a new plate, dried under N2 at ˜28° C. and reconstituted with 75 μL of 0.2% FA in water. The extracts were chromatographed on an Aquasil C18 column using a gradient system of 0.2% formic acid in water and acetonitrile. The analytes were detected and quantified by tandem mass spectrometry in positive ion mode on an MDS Sciex API5000 or an API4000 equipped with a Turbo Ionspray® interface. The calibration range was 0.500 (LLOQ) to 200 ng/mL in mouse plasma. The corresponding range for molar units is 1.68 to 673 pmol/mL.
Liver samples were analyzed for the active species 2′-methylguanosine triphosphate (2′-MeGTP) or relevant nucleoside triphosphate by LC-MS/MS. The triphosphate levels were assayed by homogenizing (on ice) a known weight of mouse liver with 4× volume of 0.95 M trichloroacetic acid (TCA). Appropriate internal standard solution was added to the homogenate followed by neutralization with 20% ammonium hydroxide solution and addition of 500 μL 1% formic acid. The tissue samples were extracted by weak anion exchange solid phase extraction (SPE). Post extraction, the eluates were evaporated under nitrogen, followed by reconstitution before injection onto the LC-MS/MS system. The samples were chromatographed on a Luna NH2 column using a gradient system of ammonium acetate (1 mM to 20 mM and pH 8.0 to pH 10.0) in water and acetonitrile (70:30). The analyte was detected and quantified by tandem mass spectrometry in positive ion mode on an API4000 equipped with a Turbo Ionspray® interface. The calibration range was 10 to 10000 pmol/mL in mouse liver homogenate (50 to 50000 pmol/g of mouse liver).

Series [2] in a line: Stability in rat whole blood. It counts as in vitro ADME.

pEC50: −log10 of the molar value.

Usually pEC50 stands for −log10 of the EC50, conventionally taken in molar units. A word on the Cmax: it is the highest concentration seen after dosing. Broadly, the Tmax is the time from dosing to the highest level.

For the compound `CCOc1nc(N)nc2c1ncn2[C@@H]1O[C@@H]2COP(=O)(OC(C)C)O[C@H]2[C@@]1(C)O` (single isomer, unassigned) [Compound 1a], the “FHH TP (6 hr)” value in the series with fresh human hepatocytes is on record as “BLD^a”. Further, the selectivity index entry in the series with HCV genotype 1b replicon (HCV replicon assay, Zluc cells) was “greater than 100”. Further, the negative logarithm of the EC50 (pEC50) in the series on HCV genotype 1b replicon (Zluc cells (Huh-7-derived, HCV genotype 1b replicon, luciferase reporter), 72 hours) is at least 6.60. Also, the AUC(0-t) in series [1] (normalized to 1 μmol/kg dose, read-out: Plasma prodrug AUC0-24) was determined as 0.34 µM·h. In addition, in series [1] (normalized to 1 μmol/kg dose, read-out: Plasma prodrug Cmax), the Cmax is 43 nM. The Tmax in series [1] (read-out: Plasma prodrug Tmax) came to 3 h. Further, the “Stability WB_Rat (ice; 1 hr)” value in series [2] is recorded as 105%.

Values taken from US8507460B2, “Substituted 3′,5′-cyclic phosphates of purine nucleotide compounds and pharmaceutical compositions for the treatment of viral infections” (priority 2011, dated 2013).
